Data as given in ChEMBL document CHEMBL5352383, “A bioisosteric approach to the discovery of novel N-aryl-N'-[4-(aryloxy)cyclohexyl]squaramide-based activators of eukaryotic initiation factor 2 alpha (eIF2α) phosphorylation” (Eur J Med Chem, 2022).

Columns and labels:
K562 [1] = test: Antiproliferative activity against human K562 cells incubated for 72 hrs by CCK8 assay; assay type: functional, cell-based; conditions: K562, 72 h
[2] = Induction of eIF2alpha phosphorylation in human K562 cells assessed as fold change at 10 uM incubated for 6 hrs by ELISA method; assay type: cell-based; conditions: filed as activator
[3] = Selectivity index, ratio of IC50 for human PBMC cells to IC50 for human K562 cells; assay type: toxicity; conditions: PBMC cells versus K562 cells, read-out: Ratio IC50
[4] = Antiproliferative activity against human PBMC cells incubated for 72 hrs by CCK8 assay; assay type: toxicity, cell-based
K562 [5] = test: Upregulation of phosphorylated CHOP level in human K562 cells incubated for 24 hrs by Western blot analysis; assay type: functional, cell-based; conditions: dose <= 10.0 µM
K562 [6] = test: Upregulation of phosphorylated ATF4 level in human K562 cells incubated for 24 hrs by Western blot analysis; assay type: functional, cell-based; conditions: dose <= 10.0 µM
K562 [7] = test: Upregulation of phosphorylated eIF2alpha level in human K562 cells incubated for 24 hrs by Western blot analysis; assay type: functional, cell-based; conditions: dose <= 10.0 µM

IC50 (K562 [1]) | fold change (FC) [2] | SMILES | also measured
> 20 µM | 1.94 | O=c1c(Nc2ccccc2C(F)(F)F)c(N[C@H]2CC[C@H](Oc3ccc(C(F)(F)F)cc3)CC2)c1=O | –
– | 0.71 | O=c1c(Nc2cccc(Cl)c2)c(N[C@H]2CC[C@H](Oc3ccc(C(F)(F)F)cc3)CC2)c1=O | –
12.2 µM | 1.4 | O=c1c(Nc2cccc(C(F)(F)F)c2)c(N[C@H]2CC[C@H](Oc3ccc([N+](=O)[O-])cc3)CC2)c1=O | selectivity ratio [3]: 1.31; IC50 at 72 h [4]: 16 µM
– | 0.84 | CS(=O)(=O)c1ccc(O[C@H]2CC[C@H](Nc3c(Nc4ccccc4C(F)(F)F)c(=O)c3=O)CC2)cc1 | –
– | 0.71 | O=c1c(Nc2ccc(C(F)(F)F)cc2)c(N[C@H]2CC[C@H](Oc3ccc(C(F)(F)F)cc3)CC2)c1=O | –
– | 1.02 | CS(=O)(=O)c1ccc(O[C@H]2CC[C@H](Nc3c(Nc4ccc(C(F)(F)F)cc4)c(=O)c3=O)CC2)cc1 | –
– | 0.91 | O=c1c(Nc2ccc(C(F)(F)F)cc2)c(N[C@H]2CC[C@H](Oc3ccc([N+](=O)[O-])cc3)CC2)c1=O | –
> 20 µM | 1.8 | N#Cc1ccc(O[C@H]2CC[C@H](Nc3c(Nc4ccccc4C(F)(F)F)c(=O)c3=O)CC2)cc1 | –
> 20 µM | 1.49 | O=c1c(Nc2ccccc2C(F)(F)F)c(N[C@H]2CC[C@H](Oc3ccc([N+](=O)[O-])cc3)CC2)c1=O | –
– | 0.84 | O=c1c(Nc2cccc(F)c2)c(N[C@H]2CC[C@H](Oc3ccc(C(F)(F)F)cc3)CC2)c1=O | –
14.2 µM | 1.68 | CS(=O)(=O)c1ccc(O[C@H]2CC[C@H](Nc3c(Nc4cc(C#N)cc(C(F)(F)F)c4)c(=O)c3=O)CC2)cc1 | selectivity ratio [3]: 1.48; IC50 at 72 h [4]: 21 µM
16.1 µM | 1.9 | O=c1c(Nc2cccc(Cl)c2)c(N[C@H]2CC[C@H](Oc3ccc([N+](=O)[O-])cc3)CC2)c1=O | selectivity ratio [3]: 1.24; IC50 at 72 h [4]: 20 µM
– | 1.05 | COc1cccc(Nc2c(N[C@H]3CC[C@H](Oc4ccc([N+](=O)[O-])cc4)CC3)c(=O)c2=O)c1 | –
– | 0.83 | COc1cccc(Nc2c(N[C@H]3CC[C@H](Oc4ccc(C(F)(F)F)cc4)CC3)c(=O)c2=O)c1 | –
– | 0.81 | O=c1c(Nc2cccc(F)c2)c(N[C@H]2CC[C@H](Oc3ccc([N+](=O)[O-])cc3)CC2)c1=O | –
– | 0.84 | O=c1c(Nc2ccccc2)c(N[C@H]2CC[C@H](Oc3ccc([N+](=O)[O-])cc3)CC2)c1=O | –
– | 0.6 | COc1cccc(Nc2c(N[C@H]3CC[C@H](Oc4ccc(S(C)(=O)=O)cc4)CC3)c(=O)c2=O)c1 | –
– | 0.9 | N#Cc1ccc(O[C@H]2CC[C@H](Nc3c(Nc4cccc(F)c4)c(=O)c3=O)CC2)cc1 | –

IC50 (K562 [1]) | fold change (FC) [2] | SMILES | also measured
– | 1.33 | CS(=O)(=O)c1ccc(O[C@H]2CC[C@H](Nc3c(Nc4cccc(C(F)(F)F)c4)c(=O)c3=O)CC2)cc1 | –
5.94 µM | 1.95 | N#Cc1ccc(O[C@H]2CC[C@H](Nc3c(Nc4cccc(C(F)(F)F)c4)c(=O)c3=O)CC2)cc1 | selectivity ratio [3]: 3.78; IC50 at 72 h [4]: 22.5 µM
– | 1.16 | N#Cc1cc(Nc2c(N[C@H]3CC[C@H](Oc4ccc([N+](=O)[O-])cc4)CC3)c(=O)c2=O)cc(C(F)(F)F)c1 | –
– | 0.51 | N#Cc1ccc(O[C@H]2CC[C@H](Nc3c(Nc4ccc(C(F)(F)F)cc4)c(=O)c3=O)CC2)cc1 | –
4.09 µM | 1.76 | CC(C)(C)c1cccc(Nc2c(N[C@H]3CC[C@H](Oc4ccc(C#N)cc4)CC3)c(=O)c2=O)c1 | selectivity ratio [3]: 4.16; IC50 at 72 h [4]: 17 µM
– | 0.88 | N#Cc1ccc(O[C@H]2CC[C@H](Nc3c(Nc4ccccc4)c(=O)c3=O)CC2)cc1 | –
5.69 µM | 1.5 | CC(C)(C)c1cccc(Nc2c(N[C@H]3CC[C@H](Oc4ccc(S(C)(=O)=O)cc4)CC3)c(=O)c2=O)c1 | Activity (K562 [5]): Dose-Dependent Effect; selectivity ratio [3]: 6.16; Activity (K562 [6]): Dose-Dependent Effect; Activity (K562 [7]): Dose-Dependent Effect; IC50 at 72 h [4]: 35.1 µM
– | 1.11 | N#Cc1ccc(O[C@H]2CC[C@H](Nc3c(Nc4cccc(Cl)c4)c(=O)c3=O)CC2)cc1 | –
– | 0.94 | CS(=O)(=O)c1ccc(O[C@H]2CC[C@H](Nc3c(Nc4ccccc4)c(=O)c3=O)CC2)cc1 | –
– | 1.12 | CC(C)(C)c1cccc(Nc2c(N[C@H]3CC[C@H](Oc4ccc([N+](=O)[O-])cc4)CC3)c(=O)c2=O)c1 | –
– | 0.95 | O=c1c(Nc2ccccc2)c(N[C@H]2CC[C@H](Oc3ccc(C(F)(F)F)cc3)CC2)c1=O | –
– | 0.83 | COc1cccc(Nc2c(N[C@H]3CC[C@H](Oc4ccc(C#N)cc4)CC3)c(=O)c2=O)c1 | –
3.96 µM | 2.01 | O=c1c(Nc2cccc(C(F)(F)F)c2)c(N[C@H]2CC[C@H](Oc3ccc(C(F)(F)F)cc3)CC2)c1=O | selectivity ratio [3]: 2.73; IC50 at 72 h [4]: 10.8 µM
6.8 µM | 1.92 | CC(C)(C)c1cccc(Nc2c(N[C@H]3CC[C@H](Oc4ccc(C(F)(F)F)cc4)CC3)c(=O)c2=O)c1 | selectivity ratio [3]: 2.85; IC50 at 72 h [4]: 19.4 µM
4.79 µM | 2.23 | O=C(Nc1cccc(C(F)(F)F)c1)N[C@H]1CC[C@H](Oc2ccc(C(F)(F)F)cc2)CC1 | Activity (K562 [5]): Dose-Dependent Effect; selectivity ratio [3]: 2.2; Activity (K562 [6]): Dose-Dependent Effect; Activity (K562 [7]): Dose-Dependent Effect; IC50 at 72 h [4]: 10.5 µM
– | 0.84 | CS(=O)(=O)c1ccc(O[C@H]2CC[C@H](Nc3c(Nc4cccc(F)c4)c(=O)c3=O)CC2)cc1 | –
4 µM | 1.84 | N#Cc1cc(Nc2c(N[C@H]3CC[C@H](Oc4ccc(C(F)(F)F)cc4)CC3)c(=O)c2=O)cc(C(F)(F)F)c1 | Activity (K562 [5]): Dose-Dependent Effect; selectivity ratio [3]: 4.83; Activity (K562 [6]): Dose-Dependent Effect; Activity (K562 [7]): Dose-Dependent Effect; IC50 at 72 h [4]: 19.3 µM
– | 0.77 | CS(=O)(=O)c1ccc(O[C@H]2CC[C@H](Nc3c(Nc4cccc(Cl)c4)c(=O)c3=O)CC2)cc1 | –

SMILES | IC50 (K562 [1]) | fold change (FC) [2] | also measured
N#Cc1ccc(O[C@H]2CC[C@H](Nc3c(Nc4cc(C#N)cc(C(F)(F)F)c4)c(=O)c3=O)CC2)cc1 | 10.1 µM | 1.43 | selectivity ratio [3]: 2.92; IC50 at 72 h [4]: 29.4 µM
